Measurements: patent publication US3950354A, “Imidazolylacetic acid amides” (Bayer Aktiengesellschaft, priority 1972, dated 1976)
Values after ≈ are worked out from the molar mass of the structure shown. Like-named read-outs stand apart in the source and are kept apart here.

Assays:
[1] = system: Trichophyton mentagrophytes; assay: Anti-mycotic spectrum of action in vitro, series dilution test (Trichophyton mentagrophytes); type: cell-based; conditions: read-out: Minimum inhibitory concentration
Procedure: (§1) Determination of the anti-mycotic spectrum of action in vitro, by the series dilution test
(§2) The nutrient substrates used were Sabouraud's milieu d'epreuve for dermatophytes and moulds, and meat broth-glucose bouillon for blastomycetes and biphase fungi.
(§3) The incubation temperature was 28°C and the incubation time was 24 to 96 hours.

Candida albicans [2] = assay: Anti-mycotic spectrum of action in vitro, series dilution test (Candida albicans); type: cell-based; conditions: read-out: Minimum inhibitory concentration
Procedure: as §1, §2, §3

Penicillium commune = assay: Anti-mycotic spectrum of action in vitro, series dilution test (Penicillium commune); type: cell-based; conditions: read-out: Minimum inhibitory concentration
Procedure: as §1, §2, §3

Aspergillus niger = assay: Anti-mycotic spectrum of action in vitro, series dilution test (Aspergillus niger); type: cell-based; conditions: * = 90% inhibition of growth, read-out: Minimum inhibitory concentration
Procedure: as §1, §2, §3

Microsporon felineum = assay: Anti-mycotic spectrum of action in vitro, series dilution test (Microsporon felineum); type: cell-based; conditions: read-out: Minimum inhibitory concentration
Procedure: as §1, §2, §3

Candida albicans [3] = assay: Candidosis of mice; type: in vivo, Mice of type SPF-CF1; conditions: oral, 50, 75, 100 and 150 mg/kg, one hour before and 7 hours after infection; 1 to 2 × 10^6 Candida cells intravenously
Procedure: Mice of type SPF-CF1 were intravenously infected with 1 to 2 × 10^6 Candida cells which were suspended in physiological sodium chloride solution.
One hour before and 7 hours after infection, the animals were treated orally with 50, 75, 100 and 150 mg of the compounds according to the invention/kg of body weight. Untreated control animals died of the infection, 3 to 6 days after infection.

[4] = n.s. = no serum added, * = 90% inhibition of growth
[5] = n.s. = no serum added, Sabouraud's milieu d'epreuve, 28°C, 24 to 96 hours
[6] = n.s. = no serum added, meat broth-glucose bouillon, 28°C, 24 to 96 hours
[7] = n.s. = no serum added, + = 50% inhibition of growth

O=C(Nc1ccc(Cl)cc1Cl)C(c1ccccc1)(c1ccccc1)n1ccnc1 [Example 6, ω,ω-diphenyl-ω-imidazolyl-(1)-acetic acid 2,4-dichloroanilide]
MIC [1, 4]: 1 µg/mL (≈ 2.37 µM)
MIC ([1]; w.s. = with 30% serum added): 8 µg/mL (≈ 18.9 µM)
MIC (Candida albicans [2]; [4]): 1 µg/mL (≈ 2.37 µM)
MIC (Candida albicans [2]; w.s. = with 30% serum added, * = 90% inhibition of growth): 32 µg/mL (≈ 75.8 µM)
MIC (Penicillium commune; * = 90% inhibition of growth): 64 µg/mL (≈ 152 µM)
MIC (Aspergillus niger; n.s. = no serum added): 4 µg/mL (≈ 9.47 µM)
MIC (Aspergillus niger; w.s. = with 30% serum added): 8 µg/mL (≈ 18.9 µM)
MIC (Microsporon felineum; * = 90% inhibition of growth): 4 µg/mL (≈ 9.47 µM)

O=C(N1CCS(=O)(=O)CC1c1ccccc1)C(c1ccc(Cl)cc1)(c1ccc(Cl)cc1)n1ccnc1 (stereo not drawn) [Example 11, 4-[ω,ω-di-(4-chlorophenyl)-ω-imidazolyl-(1)-methylcarbonyl]-3-phenyl-1,4-thiazine dioxide]
MIC [1, 5]: 32 µg/mL (≈ 59.2 µM)
MIC ([1]; w.s. = with 30% serum added): 32 µg/mL (≈ 59.2 µM)
MIC (Candida albicans [2]; [6]): > 64 µg/mL
MIC (Candida albicans [2]; w.s. = with 30% serum added): > 64 µg/mL
MIC (Penicillium commune; 28°C, 24 to 96 hours): > 64 µg/mL

CCOC(=O)N1CCN(C(=O)C(c2ccccc2)(c2ccccc2)n2ccnc2)CC1 [Example 12, 4-[ω,ω-diphenyl-ω-imidazolyl-(1)-methylcarbonyl]-1-ethoxycarbonyl-piperazine]
MIC [1, 7]: 64 µg/mL
MIC (Candida albicans [2]; [7]): 64 µg/mL
MIC (Candida albicans [2]; w.s. = with 30% serum added): > 64 µg/mL
MIC (Penicillium commune; 28°C, 24 to 96 hours): > 64 µg/mL
Action in the case of Candida albicans (survivals on 6th day after infection) (Candida albicans [3]): + (50% survivals on 6th day after infection)

O=C(N1CCN(c2ccccc2Cl)CC1)C(c1ccccc1)(c1ccccc1)n1ccnc1 [Example 13, 4-[ω,ω-diphenyl-ω-imidazolyl-(1)-methylcarbonyl]-1-o-chlorophenyl-piperazine]
MIC [1, 5]: 10 µg/mL (≈ 21.9 µM)
MIC ([1]; w.s. = with 30% serum added): 40 µg/mL (≈ 87.5 µM)
MIC (Candida albicans [2]; [6]): > 100 µg/mL
MIC (Penicillium commune; 28°C, 24 to 96 hours): > 100 µg/mL
MIC (Aspergillus niger; n.s. = no serum added): 1 µg/mL (≈ 2.19 µM)
MIC (Aspergillus niger; w.s. = with 30% serum added): 100 µg/mL (≈ 219 µM)
MIC (Microsporon felineum; 28°C, 24 to 96 hours): 100 µg/mL (≈ 219 µM)

O=C(N1CCS(=O)(=O)CC1)C(c1ccc(Cl)cc1)(c1ccc(Cl)cc1)n1ccnc1 [Example 2, [ω,ω-di(4-chlorophenyl)-ω-imidazolyl-(1)-methylcarbonyl-(4)]-1,4-thiazine dioxide]
MIC [1, 5]: 100 µg/mL (≈ 215 µM)
MIC (Candida albicans [2]; [6]): > 100 µg/mL
MIC (Penicillium commune; 28°C, 24 to 96 hours): > 100 µg/mL
Action in the case of Candida albicans (survivals on 6th day after infection) (Candida albicans [3]): + (50% survivals on 6th day after infection)

O=C(NC1CCCCC1)C(c1ccccc1)(c1ccccc1)n1ccnc1 [Example 7, ω,ω-diphenyl-ω-imidazolyl-(1)-acetic acid cyclohexylamide]
MIC [1, 4]: 32 µg/mL (≈ 89 µM)
MIC ([1]; w.s. = with 30% serum added): > 64 µg/mL
MIC (Candida albicans [2]; [4]): 4 µg/mL (≈ 11.1 µM)
MIC (Candida albicans [2]; w.s. = with 30% serum added): 8 µg/mL (≈ 22.3 µM)
MIC (Penicillium commune; 28°C, 24 to 96 hours): > 64 µg/mL
Action in the case of Candida albicans (survivals on 6th day after infection) (Candida albicans [3]): ++ (60 to 80% survivials on 6th day after infection)

Cc1cc(Cl)ccc1NC(=O)C(c1ccccc1)(c1ccccc1)n1ccnc1 [Example 5, ω,ω-diphenyl-ω-imidazolyl-(1)-acetic acid 2-methyl-4-chloro-anilide]
MIC [1, 5]: 32 µg/mL (≈ 79.6 µM)
MIC ([1]; w.s. = with 30% serum added): 32 µg/mL (≈ 79.6 µM)
MIC (Candida albicans [2]; [7]): 8 µg/mL
MIC (Candida albicans [2]; w.s. = with 30% serum added, + = 50% inhibition of growth): 64 µg/mL
MIC (Penicillium commune; 28°C, 24 to 96 hours): > 64 µg/mL

O=C(Nc1cccc(C(F)(F)F)c1)C(c1ccccc1)(c1ccccc1)n1ccnc1 [Example 4, ω,ω-diphenyl-ω-imidazolyl-(1)-acetic acid 3-trifluoromethylanilide]
MIC [1, 5]: 64 µg/mL (≈ 152 µM)
MIC ([1]; w.s. = with 30% serum added): 64 µg/mL (≈ 152 µM)
MIC (Candida albicans [2]; [6]): > 64 µg/mL
MIC (Candida albicans [2]; w.s. = with 30% serum added): > 64 µg/mL
MIC (Penicillium commune; 28°C, 24 to 96 hours): > 64 µg/mL
